Measured values as given in US20240399175A1, “REVERSAL OF SENESCENCE BY ULTRASOUND IRRADIATION” (Board of Regents, The University of Texas System, priority 2021, published 2024).

System: Vero cells
Assay: Senescence induction in Vero cells by chemical stressors (growth, cell size)
Assay type: cell-based, African monkey
Details: for cell growth of stressor-treated cells: 200 μM H2O2, 4 μM sodium butyrate, 25 μM Bleomycin Sulphate for 36-48 hours, growth over 48 h
Procedure: To test the generality of any senescent treatment, the inventors used four different methods to cause Vero cell senescence, replicative, hydrogen peroxide, sodium butyrate and Bleomycin sulfate. Senescence was measured as a decreased growth rate, increased O-gal activity, increased cell size, and secretion of pro-inflammatory factors called SASP. All four criteria were met with each type of senescent cells (FIGS. 1A to 1G). […] (FIG. 1B). There were significant differences in the size of the senescent cells with bleomycin sulfate-treated cells being the largest and replicative senescent cells the smallest (FIGS. 1C and 1D). To assay for SASP activity, the inventors cultured the senescent cells overnight and collected the supernatant from each dish. Supernatants were diluted 1:1 with fresh media and added to normal control cells. The change in normal cell number was measured after a 48 hour incubation. […] When β-galactosidase levels were measured by antibody staining, there was a relatively uniform increase in levels (FIGS. 1F and 1G). Thus, by all four criteria, the four different types of senescent cells were indeed senescent.
Senescence induction and quantification. Vero cells were treated with various stressors including 200 μM H2O2, 4 μM of sodium butyrate (SB), and 25 μM of Bleomycin Sulphate (BS) and incubated for 36-48 hours. After washing with PBS and then replacing growth medium with fresh medium, cells were incubated for 4 days to confirm the growth arrest of senescent cells. […] The inventors used four criteria to determine if cells were senescent; (1) Cell cycle arrest by determining the growth rate, (2) Increase in cell spread area, (3) Development of senescence associated secretory phonotype (SASP) in culture medium, and (4) beta-gal staining. The inventors captured images of cells with an Evos microscope at 10× magnification after treatment and 48 hours post treatment. To measure growth by the increase in cell number, 15 random images were captured, then the average number of cells were determined, which was divided by the area of one frame to get the cell density (cells/cm^2). Then this seeding density was multiplied by the total area of the dish or well to obtain the total number of cells after US treatment and after 48 hours if incubation. The total number of cells at 48 hours was divided by the total number of cells just after the treatment to determine the growth rate. If the ratio was one, there was no growth.
Senescence was detected by the beta-gal senescence staining kit as per manufacturer's protocol. […] The percentages of beta-gal positive cells were determined by counting the number of blue cells and dividing by the total number of cells. Cell spread area was determined by capturing the mages of cells with a 10× objective using an Evos microscope. […]

Compound | cell growth of stressor-treated cells | size of the senescent cells (comparison among types of senescent cells)
OO [hydrogen peroxide] | cell growth was effectively blocked | –
CCCC(=O)[O-].[Na+] [sodium butyrate] | cell growth was effectively blocked | –
Bleomycin sulfate | cell growth was effectively blocked | largest
